US12595252B2, “Inhibitors of SARM1” (DISARM THERAPEUTICS, INC., priority 2019, dated 2026)
Where two headings read alike, the source gives them in different places.

Target: T1, SARM1 (Homo sapiens, UniProt Q6SZW1)
T1 construct: made in house; host or cells: NRK1-HEK293T cells, transiently transfected; clarified lysate used unpurified
T1 sequence (Q6SZW1 with tags, fused parts or gaps): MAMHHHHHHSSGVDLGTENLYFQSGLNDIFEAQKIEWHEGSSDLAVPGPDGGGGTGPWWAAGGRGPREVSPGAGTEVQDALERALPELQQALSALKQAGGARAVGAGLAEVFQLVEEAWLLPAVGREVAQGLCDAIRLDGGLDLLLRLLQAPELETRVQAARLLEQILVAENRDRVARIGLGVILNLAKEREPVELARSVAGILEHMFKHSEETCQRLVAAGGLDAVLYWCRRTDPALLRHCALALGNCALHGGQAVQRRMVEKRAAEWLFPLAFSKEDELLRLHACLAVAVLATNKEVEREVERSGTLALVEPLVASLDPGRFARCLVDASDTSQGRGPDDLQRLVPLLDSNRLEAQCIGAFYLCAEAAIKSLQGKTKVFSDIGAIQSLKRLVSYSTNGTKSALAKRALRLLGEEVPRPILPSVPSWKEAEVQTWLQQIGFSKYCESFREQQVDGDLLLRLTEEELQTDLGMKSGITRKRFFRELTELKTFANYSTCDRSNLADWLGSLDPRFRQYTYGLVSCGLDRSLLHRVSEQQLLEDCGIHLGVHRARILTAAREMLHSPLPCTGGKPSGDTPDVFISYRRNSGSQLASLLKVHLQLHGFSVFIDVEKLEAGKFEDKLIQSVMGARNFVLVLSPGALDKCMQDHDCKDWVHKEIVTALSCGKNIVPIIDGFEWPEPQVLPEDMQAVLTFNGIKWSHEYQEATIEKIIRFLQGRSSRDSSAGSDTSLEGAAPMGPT
Assay: ARM-SAM-TIR SARM1 IC50 assay (NADase activity, NAD+ cleavage)
Assay type: biochemical
Method: This Example describes an assay of ARM-SAM-TIR NADase activity and use of this assay to measure the efficacy of compounds of Formula I to block SARM1 mediated NAD+ cleavage. This assay is optimized in such a way as to characterize the efficacy of the compounds in Formula I to inhibit SARM1 activity and to calculate an IC50 value for each compound. This assay makes use of full length SARM1, which encompasses the ARM, SAM and TIR domains.
NRK1-HEK293T cells were seeded onto 150 cm^2 plates at 20×10^6 cells per plate. The next day, the cells were transfected with 15 μg ARM-SAM-TIR expression plasmid, SEQ ID NO: 1.
The cultures were supplemented with 1 mM NR at time of transfection to minimize toxicity from ARM-SAM-TIR overexpression. Forty-eight hours after transfection, cells were harvested, pelleted by centrifugation at 1,000 rpm (Sorvall ST 16R centrifuge, Thermo Fisher), and washed once with cold PBS (0.01 M phosphate buffered saline NaCl 0.138 M; KCl 0.0027 M; pH 7.4). The cells were resuspended in PBS with protease inhibitors (cOmplete™ protease inhibitor cocktail, Roche product #11873580001) and cell lysates were prepared by sonication (Branson Sonifer 450, output=3, 20 episodes of stroke). The lysates were centrifuged (12,000×g for 10 min at 4° C.) to remove cell debris and the supernatants (containing ARM-SAM-TIR protein) were stored at −80° C. for later use in the in vitro ARM-SAM-TIR NADase assay (see below). Protein concentration was determined by the Bicinchoninic (BCA) method and used to normalize lysate concentrations.
The enzymatic assay was performed in a 384-well polypropylene plate in Dulbecco's PBS buffer in a final assay volume of 20 μL. ARM-SAM-TIR lysate with a final concentration of 5 μg/mL was pre-incubated with the respective compound at 1% DMSO final assay concentration over 2 h at room temperature. The reaction was initiated by addition of 5 μM final assay concentration of NAD+ as substrate. After a 2 hr room temperature incubation, the reaction was terminated with 40 μL of stop solution of 7.5% trichloroacetic acid in acetonitrile. The NAD+ and ADPR concentrations were analyzed by a RapidFire High Throughput Mass Spectrometry System (Agilent Technologies, Santa Clara, Calif.) using an API4000 triple quadrupole mass spectrometer (AB Sciex Framingham, Mass.).

[1] = ARM-SAM-TIR lysate 5 μg/mL from NRK1-HEK293T cells, 2 h pre-incubation, 5 μM NAD+, 2 hr room temperature, NAD+ and ADPR by RapidFire MS, read-out: SARM1 IC50

Row | IC50 [1] [µM] | Structure (SMILES) | IC50 [µM]
1 | > 30 | Cn1cc(CNc2cncc(OCC(F)(F)F)n2)cn1 [Example 117] | –
2 | < 5 | COc1cncc(NCc2ccc(N)nc2)n1 [Example 118] | –
3 | < 5 | COc1cncc(NCc2cnn(C3CCN(C)CC3)c2)n1 [Example 119] | –
4 | < 5 | CCN1CCC(n2cc(CNc3cncc(OC)n3)cn2)CC1 [Example 120] | –
5 | 5 to 15 | COc1cncc(NCc2cnc(C)o2)n1 [Example 121] | –
6 | 5 to 15 | CCN1CCN(c2ncc(CNc3cncc(OC)n3)cn2)C(C)C1 (stereo not drawn) [Example 122] | –
7 | 5 to 15 | COc1cncc(NCc2cccc(N3CCN(C(=O)OC(C)(C)C)CC3)c2)n1 [Example 123] | –
8 | – | COc1cncc(NCc2ccc(C3=CCN(C)CC3)nc2)n1 [Example 124] | 5 to 15
9 | 5 to 15 | COc1cncc(NCc2ccc(C3CCN(C)CC3)nc2)n1 [Example 125] | –
10 | 5 to 15 | COc1cncc(NCc2cccc(N3CCNCC3)c2)n1 [Example 126] | –
11 | 15 to 30 | COc1cncc(NCc2cccc(S(C)(=O)=O)c2)n1 [Example 127] | –
12 | 5 to 15 | COc1cncc(NCc2cccc(C#N)c2)n1 [Example 128] | –
13 | 5 to 15 | COc1cncc(NCc2ccc(C#N)cc2)n1 [Example 129] | –
14 | 5 to 15 | COc1cncc(NCc2ccc(N3CCC(F)(F)CC3)nc2)n1 [Example 130] | –
15 | < 5 | COc1cncc(NCc2ccc(N3CCN4CCCC4C3)nc2)n1 (stereo not drawn) [Example 131] | –
16 | 5 to 15 | COc1cncc(NCc2ccc(N3CCN(C(=O)OC(C)(C)C)CC3)nc2)n1 [Example 132] | –
17 | 5 to 15 | COc1cncc(NCc2ccc(NS(C)(=O)=O)nc2)n1 [Example 133] | –
18 | 15 to 30 | COc1cncc(NCc2cnn(C3CCN(C(C)=O)CC3)c2)n1 [Example 134] | –
19 | 15 to 30 | COc1cnnc(NCc2cn[nH]c2)c1 [Example 135] | –
20 | 5 to 15 | COc1cc(NC(=O)c2cccnc2)cnn1 [Example 136] | –
21 | > 30 | COc1cc(NC(=O)c2cnccn2)cnn1 [Example 137] | –

Row | IC50 [1] [µM] | Structure (SMILES) | IC50 [µM]
22 | 15 to 30 | CCc1cncc(NCc2cccnc2)n1 [Example 138] | –
23 | 5 to 15 | CNC(=O)c1cncc(NCc2cccnc2)n1 [Example 139] | –
24 | 15 to 30 | COc1cc(NCc2cccnc2)n[nH]c1=O [Example 140] | –
25 | 5 to 15 | COc1cncc(NCc2ccc(-c3ccncc3)nc2)n1 [Example 141] | –
26 | 5 to 15 | COc1cncc(NCc2ccc(-c3ccccc3)nc2)n1 [Example 142] | –
27 | 5 to 15 | COc1cncc(NCc2ccc(OC(F)(F)F)cc2)n1 [Example 143] | –
28 | 5 to 15 | COc1cncc(NCc2ccc(C(C)(C)O)cc2)n1 [Example 144] | –
29 | > 30 | COc1cncc(NCc2cccnc2O)n1 [Example 145] | –
30 | 5 to 15 | COc1cncc(NCc2ccc(-c3nnco3)cc2)n1 [Example 146] | –
31 | 5 to 15 | COc1cncc(NCc2ccc(N3CCN(C(C)C)CC3)nc2)n1 [Example 147] | –
32 | 5 to 15 | CCCCN1CCN(c2ccc(CNc3cncc(OC)n3)cn2)CC1 [Example 148] | –
33 | 5 to 15 | CCNC(=O)n1cc(CNc2cncc(OC)n2)cn1 [Example 149] | –
34 | 5 to 15 | COc1cncc(NCc2cnn(S(C)(=O)=O)c2)n1 [Example 150] | –
35 | 5 to 15 | Cn1cc(CNc2cncc(NCCCCO)n2)cn1 [Example 151] | –
36 | < 5 | CNc1cncc(OC)n1 [Example 152] | –
37 | > 30 | COc1cc(NCc2cccnc2)cc(=O)[nH]1 [Example 153] | –
38 | > 30 | N#Cc1cncc(NCc2cccnc2)n1 [Example 154] | –
39 | 5 to 15 | CCN1CCN(c2cccc(CNc3cncc(OC)n3)c2)CC1 [Example 155] | –
40 | 15 to 30 | COc1cncc(NCc2ccc(S(=O)(=O)N(C)C)cc2)n1 [Example 156] | –
41 | 15 to 30 | COc1cncc(NCc2ccn(C)c(=O)c2)n1 [Example 157] | –
42 | 15 to 30 | COc1cncc(NCc2ccc(-c3nn[nH]n3)cc2)n1 [Example 158] | –

Row | IC50 [1] [µM] | Structure (SMILES) | IC50 [µM]
43 | 15 to 30 | COc1cncc(N)n1 [Example 159] | –
44 | 15 to 30 | COc1cncc(N)c1 [Example 160] | –
45 | > 30 | CNc1cc(OC)cnn1 [Example 161] | –
46 | > 30 | CNc1nccc(OC)n1 [Example 162] | –
47 | 5 to 15 | CNc1cncc(OCc2ccccc2)n1 [Example 163] | –
48 | > 30 | CNC(=O)c1cncc(NC)n1 [Example 164] | –
49 | 15 to 30 | CNc1cncc(NCCCCO)n1 [Example 166] | –
50 | 15 to 30 | CNc1cncc(NCCc2cnn(C)c2)n1 [Example 167] | –
51 | > 30 | CNc1cncc(OCCCNC(=O)OC(C)(C)C)n1 [Example 168] | –
52 | > 30 | CNc1cncc(OCCCCNC(=O)OC(C)(C)C)n1 [Example 169] | –
53 | > 30 | CCCOc1cncc(NCc2cnn(C)c2)n1 [Example 170] | –
54 | 5 to 15 | CNc1cncc(OC)c1 [Example 171] | –
55 | > 30 | CNc1cncc(OCCCN)n1 [Example 172] | –
56 | > 30 | CNc1cncc(OCCCCN)n1 [Example 173] | –
57 | < 5 | CNc1cncc(OCCCCO)n1 [Example 174] | –
58 | > 30 | COc1cc(NCc2ccc(S(N)(=O)=O)cc2)cnn1 [Example 175] | –
59 | > 30 | COc1cc(NCc2cc[nH]c(=O)c2)cnn1 [Example 176] | –
60 | > 30 | Cn1cc(CNc2cncc(OCCC3CCCO3)n2)cn1 (stereo not drawn) [Example 177] | –
61 | > 30 | CCN1CCN(c2ccc(CNc3cnccn3)cn2)CC1 [Example 178] | –
62 | > 30 | CCN1CCN(c2ccc(CNc3cnccn3)cc2)CC1 [Example 182] | –
63 | > 30 | CCOc1cncc(NCc2cnccn2)n1 [Example 183] | –

Row | IC50 [1] [µM] | Structure (SMILES) | IC50 [µM]
64 | > 30 | CCOc1cncc(NC(C)c2ccccn2)n1 (stereo not drawn) [Example 184] | –
65 | > 30 | CCOc1cncc(NCc2ccccn2)n1 [Example 185] | –
66 | > 30 | Brc1cncc(NCc2cccnc2)n1 [Example 186] | –
67 | > 30 | Clc1cncc(NCc2cccnc2)n1 [Example 187] | –
68 | > 30 | Brc1cncc(OCc2cccnc2)n1 [Example 188] | –
69 | > 30 | Clc1cncc(OCc2cccnc2)n1 [Example 189] | –
70 | > 30 | CCOc1cncc(OCc2cccnc2)n1 [Example 190] | –
71 | > 30 | CCOc1cncc(NC(=O)c2cccnc2)n1 [Example 191] | –
72 | > 30 | CCOc1cncc(NC(=O)c2ccccc2)n1 [Example 192] | –
73 | > 30 | CCOc1cncc(NC(C)=O)n1 [Example 193] | –
74 | > 30 | CCOc1cncc(NS(C)(=O)=O)n1 [Example 195] | –
75 | > 30 | COc1cncc(C(=O)NCc2ccccc2)n1 [Example 196] | –
76 | > 30 | COc1cncc(C(=O)Nc2ccccc2)n1 [Example 197] | –
77 | > 30 | c1ccc(COc2cncc(NCc3cccnc3)n2)cc1 [Example 198] | –
78 | > 30 | c1cncc(CNc2cncc(OCC3CCCC3)n2)c1 [Example 199] | –
79 | > 30 | CCCc1cncc(NCc2cccnc2)n1 [Example 200] | –
80 | > 30 | Cc1ncc(Cl)nc1NCc1cccnc1 [Example 201] | –
81 | > 30 | COc1cncc(N(C)Cc2cccnc2)n1 [Example 202] | –
82 | > 30 | COc1cnc(NCc2cccnc2)cn1 [Example 203] | –
83 | > 30 | COc1cnc(C)c(NCc2cccnc2)n1 [Example 204] | –
84 | > 30 | COc1cncc(NCc2cn(C)nc2C)n1 [Example 206] | –
